# Source: patent publication US11160788B2, “Caspase-1 inhibition and uses thereof for prevention and treatment of neurological conditions” (priority 2016, dated 2021)
# Tests used:
# J20 mice = assay: APP, Casp1, Casp6, IDE and neprilysin expression, treated symptomatic J20 mice; type: in vivo, mouse; conditions: RT-PCR, J20 brains, preliminary
# Text: FIG. 5: Western blot against the C-terminus (C11) and Aβ (6E10) regions of APP in TREATMENT mice groups before washout.
# FIG. 11: VX-765 prevents the progression of Aβ in J20 mice. (a) Aβ immunohistographs of the stratum lacunosum molecular layer of the hippocampus and S1 cortex of pre-treated 5-month old J20 (baseline) and 8-month old vehicle- or VX-765-treated WT or J20 mice with anti-F2576 antiserum (Scale bar=50 μm). (b) Quantitative analysis comparing Aβ immunostaining density between J20+Vehicle (n=5) and J20+VX-765 (n=4) mice in the hippocampus from the pyramidal cell layer to the stratum lacunosum molecular layer (p=0.0029) and cortex (p=0.0314, unpaired t test). (c) Quantitative analysis comparing RIPA-soluble Aβ42 over total Aβ (Aβ38+Aβ40+Aβ42) levels in pre-treated 5-month old J20, 8-month old vehicle- or VX-765 treated J20 mice hippocampus (F(2,9)=6.614, p=0.0171, ANOVA, Tukey's post-hoc, * p<0.05). No ELISA signal was obtained from WT mice brains. (d) RIPA-soluble total Aβ measured by ELISA in pg/mg brain tissue. (e,f) Formic acid soluble Aβ42 over total Aβ (Aβ38+Aβ40+Aβ42) (e) and total Aβ (f) levels measured by ELISA in pg/mg brain tissue. Student t-test used to assess difference between J20+vehicle and J20+VX-765. (g,h,i) RIPA-soluble and (j,k,l) formic acid soluble Aβ38, Aβ40, and Aβ42 measured by ELISA in pg/mg brain tissue. […]
# [1] = test system: APP^WT-transfected human primary neurons; assay: Neuritic beading in APPWT-transfected human primary neurons; type: cell-based
# Procedure: FIG. 13: VX-765 protects CNS primary human neurons (HPN) against APP- or serum deprivation-mediated neuritic beading. (a) MTT assay with increasing dose of VX-765. (b) Fluorescent micrographs showing homogeneous distribution of EGFP in normal neurons and neuritic beading in APP-transfected neurons. (c) Percentage beading in APP-transfected or serum-deprived neurons treated 1 h before and continuously with stressor (Pre-treatment) or 48 h after stressor (post-beading treatment) with 25 or 50 μM VX-765 or with 5 μM Z-YVAD-fmk Casp1 peptide inhibitor. […] (d-e) HPN secreted or cellular Aβ42/total Aβ38+40+42 (d) (F(3,4)=12.73, p=0.0163, ANOVA, Dunnett's post-hoc compared to Serum+DMSO, *p<0.05), and (e) levels of secreted II-1β, IFN-γ, TNF-α, and II-6 from untreated (+S), serum deprived (−S), or serum-deprived human neurons treated with 25 or 50 μM VX-765.
# EGFP-labeled human primary neurons were either APP^WT transfected or serum deprived. Two treatment strategies were employed to determine VX-765's effects on neuronal degeneration: our Pre-Treatment strategy looked at whether VX-765 could block neuronal degeneration when administered 1 hr prior to APP^WT transfection or serum deprivation, while our Reversal Treatment strategy looked at whether VX-765 could reverse degenerative effects when administered 48 hrs after APP^WT transfection or serum deprivation. Neurons displaying beaded morphology were counted with live imaging and measured as a percentage of the total number of eGFP+ neurons from 24-72 hrs after treatment. The irreversible caspase-1 inhibitor YVAD-fmk was used as positive control in our experiments. Results were obtained from averaging counts for at least 100 eGFP+ neurons per experiment in three independent neuron preparations.
structure (smiles),measurement,setting,value
"CCO[C@@H]1OC(=O)C[C@@H]1NC(=O)[C@@H]1CCCN1C(=O)[C@@H](NC(=O)c1ccc(N)c(Cl)c1)C(C)(C)C [VX-765, (S)-1-((S)-2-{[1-(4-amino-3-chloro-phenyl)-methanoyl]-amino}-3,3-dimethyl-butanoyl)-pyrrolidine-2-carboxylic acid ((2R,3S)-2-ethoxy-5-oxo-tetrahydro-furan-3-yl)-amide]",Casp1 and Casp6 mRNA,J20 mice,reduction
same,neuritic beading,"[1]; pre-treatment 1 h before and continued, VX-765 25 and 50 μM, Z-YVAD-fmk 5 μM, 48 and 72 h",prevented neuritic beading
same,reduction in neuritic beading,"[1]; pre-treatment 1 hr prior, 48 hrs and 72 hrs post transfection, vs DMSO",40%
